Experimental data reported in US20160166604A1, “Thiol-Sensitive Positive Inotropes” (priority 2005, published 2016).

What was measured:
mice cardiomyocytes = experiment: Whole Ca2+ transients in isolated mouse myocytes (fluo-4, confocal line scan); format: cell-based
Protocol: Wild type 2-4 month old mice were anesthetized with intraperitoneal pentobarbital sodium (100 mg/kg/ip). Hearts were perfused as previously described. Mongillo, M. et al., Circ. Res., 98, 226-234 (2006). To assess for sarcomere shortening, cells were imaged using field stimulation (Warner instruments) in an inverted fluorescence microscope (Diaphot 200; Nikon, Inc). Sarcomere length was measured by real-time Fourier transform (IonOptix MyoCam, CCCCD100M) and cell twitch amplitude is expressed as a percentage of resting cell length. Twitch kinetics was quantified by measuring the time to peak shortening and the time from peak shortening to 50% relaxation. For whole calcium transient measurements, myocytes were loaded with the Ca^2+ indicator fluo-4/AM (Molecular Probes, 20 μM for 30 min) and Ca^2+ transients were measured under field-stimulation at 0.5 Hz in perfusion solution by confocal laser scanning microscope (LSM510, Carl Zeiss). Digital image analysis used customer-designed programs coded in Interactive Data Language (IDL).
To further explore potential HNO targets, calcium cycling in adult mouse and rat cardiac myocytes was examined. Cells were first exposed to AS for 5-10 min, then washed and loaded with Indo-1 or Fluo-4 for 20 min. Pretreatment with AS was carried out because the drug reacted with the Ca^2+ indicators (both Fluo-4 and Indo-1) and altered their fluorescent properties. In mice, the calcium transient amplitude assessed by confocal line scan imaging increased by ˜40% over baseline with 0.5 mM AS, (n=27, p<0.001) (FIG. 3A-FIG. 3C), time to peak transient was prolonged (FIG. 3D) while the decay time shortened (FIG. 3E). Basal fluorescence (F0) was unchanged by AS pretreatment (FIG. 3F). Similar results were obtained in rat myocytes (using Indo-1) for Ca^2+ transient amplitude (FIG. 3G and FIG. 3H) and decay time (FIG. 3I). The increase in amplitude was not accompanied by an increase in diastolic Ca^2+ level (ratio 405/485=0.239±0.006 (Con) vs. 0.243±0.008 (AS); n.s.; see also FIG. 3A, FIG. 3F and FIG. 3G). Rapid sustained caffeine (10 mM) application abruptly releases all SR Ca^2+ and subsequent [Ca^2+]i decline is mediated mainly via Na/Ca exchange.

[1] = test system: cardiac myocytes from WT and Gαq overexpressing FVB/N mice; experiment: Sarcomere shortening in cardiac myocytes from WT and Gαq overexpressing mice; format: cell-based, mouse; conditions: for increase in sarcomere shortening: Gαq myocytes
Protocol: Cardiac myocytes were isolated from WT and Gαq overexpressing 2-6 month old FVB/N mice, suspended in Tyrode's solution (1 mM calcium) and field stimulated at 0.5 Hz at 23° C. Sarcomere shortening (SS) was assessed by real-time image analysis; data are presented at steady-state (10 minutes drug infusion).

SR Ca2+ pump (SERCA2a) = target: T1, SR Ca2+ pump (SERCA2a) (Mus musculus, UniProt O55143); experiment: ATP-dependent Ca2+ uptake by murine cardiac SR vesicles (stopped-flow, arsenazo III); format: biochemical; design: total Ca2+ uptake at equilibrium: unit not given here
T1 construct: Crude cardiac microsomal vesicles containing fragmented sarcoplasmic reticulum (SR) were prepared; from tissue; host or cells: pooled hearts of C57 male mice (crude SR microsomal vesicles)
T1 sequence (O55143 1-998 isoform O55143-2): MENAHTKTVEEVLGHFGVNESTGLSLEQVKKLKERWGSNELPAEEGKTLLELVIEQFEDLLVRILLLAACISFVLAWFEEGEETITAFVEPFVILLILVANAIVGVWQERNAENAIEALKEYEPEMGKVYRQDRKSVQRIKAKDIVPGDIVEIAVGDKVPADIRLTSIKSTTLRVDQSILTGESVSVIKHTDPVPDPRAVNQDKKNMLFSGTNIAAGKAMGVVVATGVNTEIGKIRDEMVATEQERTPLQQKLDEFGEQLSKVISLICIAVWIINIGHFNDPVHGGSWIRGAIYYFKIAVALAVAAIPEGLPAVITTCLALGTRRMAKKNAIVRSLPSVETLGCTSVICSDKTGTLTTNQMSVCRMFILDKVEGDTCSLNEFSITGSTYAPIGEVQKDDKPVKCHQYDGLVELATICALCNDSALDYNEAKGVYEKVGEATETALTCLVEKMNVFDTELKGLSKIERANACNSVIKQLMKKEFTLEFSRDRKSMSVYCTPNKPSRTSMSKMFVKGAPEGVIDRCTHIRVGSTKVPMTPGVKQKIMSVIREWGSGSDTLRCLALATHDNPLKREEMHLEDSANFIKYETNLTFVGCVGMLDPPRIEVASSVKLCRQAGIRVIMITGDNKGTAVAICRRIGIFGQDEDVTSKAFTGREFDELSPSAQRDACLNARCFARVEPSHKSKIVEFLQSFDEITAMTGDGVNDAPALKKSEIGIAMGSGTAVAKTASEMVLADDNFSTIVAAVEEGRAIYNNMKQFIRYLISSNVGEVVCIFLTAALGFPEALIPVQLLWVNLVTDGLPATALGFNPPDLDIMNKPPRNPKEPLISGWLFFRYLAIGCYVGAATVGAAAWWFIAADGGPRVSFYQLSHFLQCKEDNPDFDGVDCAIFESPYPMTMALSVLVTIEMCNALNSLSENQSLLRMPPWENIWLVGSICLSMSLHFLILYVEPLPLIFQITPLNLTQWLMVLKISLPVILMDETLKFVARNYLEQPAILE
Protocol: Crude cardiac microsomal vesicles containing fragmented sarcoplasmic reticulum (SR) were prepared as previously described for rat heart. Froehlich, J. P. et al., J. Mol. Cell. Cardiol., 10, 427-438 (1978). Pooled hearts from C57 male mice sacrificed by cervical dislocation were placed in 0.9% saline on ice, trimmed of atrial and connective tissue, and weighed. The finely minced heart muscle was homogenized in 10 mM NaHCO3 using a Polytron blender and the SR vesicles were separated from the myofilaments, mitochondria and nuclear membranes by differential centrifugation at 8,500 and 45,000×g. SR vesicles suspended in 0.25 M sucrose+10 mM MOPS, pH 7.0 were frozen and stored in liquid nitrogen prior to use. Twenty minutes prior to measuring Ca^2+ uptake, cardiac SR vesicles (1 mg/ml in storage buffer) were incubated with 250 μM AS delivered from a freshly-prepared 10 mM stock solution of AS (Na2N2O3) dissolved in 10 mM NaOH. […] Stopped-flow mixing was used to measure the initial time course of Ca^2+ accumulation by murine cardiac SR vesicles using the Ca^2+ indicator dye, arsenazo III. Membrane vesicles (0.4 mg/ml) suspended in a medium containing 100 mM KCl, 1 mM MgCl2, 50 μM arsenazo III, 5 mM sodium azide, and 20 mM MOPS, pH 7.4, were mixed with an equal volume of an identical medium containing 1 mM Na2ATP at 24° C. in a manually-operated stopped-flow apparatus (Applied Photophysics, Ltd.). The change in [Ca^2+] in the mixing cuvette was monitored using a single-beam UV-VIS spectrophotometer (AVIV, Model 14DS) with a monochromator setting of 650 nm. The total [Ca^2+] in the uptake medium was 0.5 μM, yielding a free [Ca^2+] in equilibrium with the Ca-arsenazo III complex of 0.2 μM (KA=3.3×10^4 M^−1). […] The time-dependent decrease in absorbance at 650 nm, reflecting Ca^2+ uptake by the SR vesicles, was monitored for 30-60 s at 0.1 s intervals. […] The signal change due to vesicle light scattering was evaluated from separate measurements conducted under identical conditions at the isosbestic wavelength of 693 nm. For evaluation of the time course of Ca^2+ uptake, a representative trace at 693 nm was subtracted from each of the individual traces at 650 nm acquired under identical conditions. The kinetic and thermodynamic parameters for Ca^2+ uptake were evaluated by fitting stopped-flow signals to one- and two-exponential decay functions plus a residual term using non-linear regression (Prism, Version 3.03). Residual plots of the difference between the fitted curve and data points were used to evaluate systematic errors in the fits and to calculate the sum-of-squares error used in selecting the best fit.
To test whether HNO directly enhances SR Ca^2+ uptake, its effects on SR membrane vesicles isolated from pooled C57/Bl6 mouse hearts were studied. Crude SR microsomal vesicles were incubated with 250 μM AS prior to measuring ATP-dependent Ca uptake by stopped-flow mixing at 24° C. Arsenazo III, a mid-range Ca indicator, was used to monitor Ca removal from the eravesicular compartment and buffer the free [Ca^2+] at a level producing half-saturation of the Ca^2+ pump (˜0.2 μM).

increase of rate constant for Ca2+ uptake (SR Ca2+ pump (SERCA2a); 250 μM AS, 0.2 μM free Ca2+, 24° C., n=6): 104%
rate constant for Ca2+ uptake (SR Ca2+ pump (SERCA2a); 250 μM AS, without AS 0.1563): 0.3204 s⁻¹
rate of initial Ca2+ uptake (SR Ca2+ pump (SERCA2a); AS 250 μM): enhanced
total Ca2+ uptake at equilibrium (SR Ca2+ pump (SERCA2a); after AS exposure, before 0.00257±0.0003, p=NS): 0.00202±0.000
SR Ca2+ uptake activity after AS solution decayed completely to products (SR Ca2+ pump (SERCA2a); decayed AS test solution (e.g. nitrite)): No stimulation
Compound: [Na+].[Na+].[O-][N+]([O-])=NO [AS, Angeli's salt]
Ca2+ transient decay time (mice cardiomyocytes; 0.5 mM AS pretreatment): shortened
time to peak Ca2+ transient (mice cardiomyocytes; 0.5 mM AS pretreatment): prolonged
increase of calcium transient amplitude over baseline (mice cardiomyocytes; 0.5 mM AS pretreatment, n=27): ~40%
basal fluorescence (F0) (mice cardiomyocytes; AS pretreatment): unchanged
Ca2+ transients (mice cardiomyocytes; AS, isolated murine cardiomyocytes (Example 7)): without changes
positive inotropic effect in Gαq myocytes compared with WT cells ([1]; AS infusion): not significantly different
increase in sarcomere shortening ([1]; AS 250 μM): 22±11%
increase in sarcomere shortening ([1]; AS 500 μM): 40±11%
